Measured values taken from US20260234188A1, “CHEMOKINE-BINDING PEPTIDES” (Oxford University Innovation Limited, priority 2022, published 2026).
“Also recorded” adds a separate entry of the source.

Each substance was assayed on panel of up to 42 human chemokines (assay: Phage-display next generation sequencing screen of overlapping hexadecapeptide libraries, chemokines displayed on streptavidin beads). Conditions: log2E greater than 5, chemokines named by first part of UniProt Entry Name.
Format: binding
Method in brief: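 Phage-display libraries of 55662 overlapping hexadecapeptides from tick and viral chemokine-binding proteins, human chemokines and chemokine receptors screened against up to 42 human chemokines, with hits found by next-generation sequencing. Peptides mapped to parent-protein position with log2 fold enrichment; regions of interest where cumulative residue log2 E exceeds the 95% upper CI of the protein median.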
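Note: chemokine listed when log2 fold enrichment exceeds 5.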

Substance	Chemokines Bound
CR23002 (TIWLVGFLLALPEILF)	CCL17, CCL18, and CCL19, CCL20, and CCL25, CCL28, and X3CL1, SDF1, and CXL13, CXL14, and IL8
CR23111 (TLFASDFVLMWAVFFM)	CCL15, CCL17,; also recorded: CCL20, CCL25,; also recorded: CXL14
CR23112 (TLFASDFVLMWCVFFM)	CCL17, CCL19,; also recorded: CCL20, CCL22,; also recorded: CCL8, X3CL1
CR23240 (TLPFWGISVAWHWVFG)	CCL17, CCL18,; also recorded: CCL20, X3CL1,; also recorded: CXL11
CR23379 (TNFDFMILNLSFADLF)	CCL17, CCL18,; also recorded: X3CL1
CR23443 (TNWKLLAEIYEYLFFF)	CCL17, CCL18,; also recorded: X3CL1, CXL10,; also recorded: CXL13
CR23572 (TRFGVWLMSIVGTFLN)	CCL17, CCL18,; also recorded: CCL2, CCL20,; also recorded: CCL22, CCL25,; also recorded: X3CL1, IL8
CR23587 (TRLGVWLMAIVGTFLN)	CCL18, CCL20,; also recorded: CCL22
CR23773 (TSVITWLVAVFASVPG)	CCL1, CCL18, and CCL2, CCL20, and CCL8
CR23880 (TTVILILAFFASWLPY)	CCL1, CCL18,; also recorded: CCL20, CCL25,; also recorded: CCL28, SDF1,; also recorded: CXL14

Same assay, conditions: log2E greater than 5, chemokines named by first part of UniProt entry name, C5a (control) binders excluded

Substance	Chemokines Bound
CR13634 (LMLVFSFVSMLASLAH)	CCL19, CCL28,; also recorded: CXL13, CXL14
CR13966 (LPTMVFSFFYVIFCKA)	CCL20, CCL25,; also recorded: SDF1, CXL14
CR13967 (LPTMVFSFFYVIFSKA)	CCL1, CCL17,; also recorded: CCL18, CCL19,; also recorded: CCL20, CCL28,; also recorded: CXL10
CR14086 (LQTVITFALYVGQFLA)	CCL15, CCL2,; also recorded: CCL28, X3CL1
CR14316 (LSISLLAEVLMFLFPN)	CCL17, CCL18,; also recorded: CCL19, CCL2,; also recorded: CCL20, CCL22,; also recorded: CCL25, X3CL1,; also recorded: CXL14
CR14365 (LSLSISLLAEVLMFLF)	CCL11, CCL19,; also recorded: CCL28, SDF1,; also recorded: CXL13, IL8
CR14548 (LTGFLFYLNMYASIYF)	CCL18, CCL19, and CCL22, CCL28, and CXL10, CXL11, and SDF1, CXL13, and IL8
CR14585 (LTLKVILGFFLPFVVM)	CCL17, CCL18,; also recorded: CCL19, CCL20,; also recorded: CXL14
CR14752 (LVFIFGFVGNMLVVLI)	CCL17, CCL25,; also recorded: CXL10
CR14765 (LVFLLSLVGNSLVLWV)	CCL2, CCL28,; also recorded: CXL10, IL8
CR14780 (LVFVIGLVGNILVVLV)	CCL17, CCL18,; also recorded: CCL19, CCL20,; also recorded: CCL22, CCL25,; also recorded: CCL28, X3CL1,; also recorded: CXL10, CXL14
CR14849 (LVLGLLLNSLALWVFC)	CCL17, CCL19, and CCL20, CCL28, and SDF1
CR14850 (LVLGLLLNSLALWVFS)	CCL22, CCL28,; also recorded: CXL10, CXL11,; also recorded: SDF1, CXL14
CR14974 (LVTLPFWGISVAWHWV)	CCL18, CCL25,; also recorded: CCL28
CR14976 (LVTMAVWVASILSSIL)	CCL2, SDF1,; also recorded: CXL13
CR15063 (LWVVVFQFQHIMVGLI)	CCL17, CCL18, and CCL19, CCL2, and CCL20, CCL22, and CCL28, CCL8, and X3CL1, CXL10, and CXL11, SDF1, and CXL13, CXL14, and IL8
CR15077 (LYAHLAAAFLWVVVAV)	CCL18, CCL19,; also recorded: CCL20, CCL22,; also recorded: CCL25, CCL28,; also recorded: CXL10, CXL11,; also recorded: SDF1, IL8
CR15079 (LYAHLASAFLWVVVAV)	CCL17, CCL18,; also recorded: CCL20, CCL22,; also recorded: CCL28, X3CL1,; also recorded: CXL10, CXL11,; also recorded: SDF1, CXL13,; also recorded: CXL14, IL8
CR15153 (LYSLLFLLGLLGNGAV)	CCL18, CCL22,; also recorded: CCL25
CR15502 (MIFTWNLVLSQFFSIL)	CCL11, CCL17,; also recorded: CCL18, CCL19,; also recorded: CCL20, CCL22,; also recorded: CCL25, CCL28,; also recorded: CCL8, X3CL1,; also recorded: CXL10, CXL11,; also recorded: SDF1, CXL13,; also recorded: CXL14, IL8
CR15670 (MMTWFYAFFYSTVQRA)	CCL18, CCL2, and CCL20, CCL25, and CCL28, CCL8, and X3CL1, CXL13, and IL8
CR15801 (MSFFSGMLLLLCISID)	CCL18, CCL20, and SDF1

Substance	Chemokines Bound
CR15915 (MVFSFFYVIFAKALHD)	CCL1, CCL18,; also recorded: CCL19, CCL20
CR15917 (MVFSFFYVIFSKALHD)	CCL19, X3CL1,; also recorded: SDF1, CXL13
CR15930 (MVIWVLAFFLSSPSLV)	CCL28, CXL10,; also recorded: CXL14
CR15967 (MVWANLLVFVVSFLPL)	CCL1, CXL10, and SDF1
CR16988 (NVTFTGLIAAFSWFML)	CCL17, CCL18,; also recorded: CCL20, CCL22,; also recorded: CCL25, CCL28,; also recorded: CXL10, SDF1,; also recorded: CXL14
CR17126 (PCGIITSVLAWVTAIL)	CCL1, CCL20,; also recorded: CCL22, CCL28,; also recorded: X3CL1, CXL10,; also recorded: CXL11, SDF1,; also recorded: CXL14, IL8
CR17298 (PGPWMNILWAWFIFWW)	CCL1, CCL17,; also recorded: CCL18, CCL19,; also recorded: CCL20, CCL28,; also recorded: CXL10, CXL14
CR17781 (PSWIISFSVWMAAILL)	CCL17, CCL18, and CCL19, CCL2, and CCL20, CCL22, and CCL25, CCL28, and X3CL1, CXL10, and CXL11, SDF1, and CXL13, CXL14, and IL8
CR17907 (PYHWGWVLGDFLAKLL)	CCL17, CCL18,; also recorded: CCL25
CR18189 (QHNLFFLLSLGIILFC)	CCL17, CCL18,; also recorded: CCL22, CCL25,; also recorded: X3CL1, CXL14
CR18714 (QYLKAFLAAVLGWHLA)	CCL18, CCL28,; also recorded: CXL13, CXL14
CR18933 (RFGVWLMSIVGTFLNM)	CCL28, CXL10, and IL8
CR18955 (RFRQYLKAFLAAVLGW)	CCL17, CCL18,; also recorded: CXL14
CR19192 (RLGVWLMSIVGTFLNV)	CCL1, CCL17,; also recorded: CCL2, CCL25,; also recorded: X3CL1, CXL11
CR19824 (RVTLTALAVWGLALLF)	CCL2, CCL22,; also recorded: CCL25, CXL10,; also recorded: CXL11, SDF1,; also recorded: CXL14, IL8
CR19826 (RVTLTSLAVWGLSLLF)	CCL17, CCL2,; also recorded: X3CL1, CXL14
CR20068 (SAVLTLKVILGFFLPF)	CCL17, CCL18,; also recorded: CCL20, CCL25,; also recorded: CCL28, CXL11
CR20273 (SESALAFIYVLMFLCN)	CCL18, CCL19,; also recorded: CCL20, CXL14
CR20429 (SFYISLFAGVSFLINL)	CCL22, CCL25,; also recorded: CXL10, CXL11
CR20433 VP8386 (SFYVAMFASLSFITEI)	CCL1, X3CL1, and CXL10, CXL11, and IL8
CR20481 (SGIFFIILLTIDRYLA)	CCL1, CCL19,; also recorded: CCL20, CCL22,; also recorded: CCL25, CCL28,; also recorded: X3CL1, CXL10,; also recorded: CXL11, SDF1
CR20486: chemokine binding peptide of Table 5A used in FIG. 5 combinations (SGIITSVLAWVTAILA)	CCL11, CCL2,; also recorded: CCL8, IL8

Substance	Chemokines Bound
CR20557 (SGYDMWLMLVYSVMIP)	CCL1, CCL15,; also recorded: CCL25
CR20660 (SIILMFLSDFSFIFSS)	CCL25, CXL13, and IL8
CR20762 (SIYLLNLAISDLLFLF)	CCL22, CCL28,; also recorded: CXL10, CXL11,; also recorded: SDF1, CXL13,; also recorded: CXL14, IL8
CR20939 (SLCLSISLLAEVLMFL)	CCL1, CCL18,; also recorded: CCL19, X3CL1
CR20965 (SLFAALVTLITSLFGS)	CCL11, CCL17,; also recorded: CCL18, CCL19,; also recorded: CCL2, CCL20,; also recorded: CCL28, X3CL1,; also recorded: CXL10, CXL11,; also recorded: CXL14, IL8
CR20981 (SLFSALVTLITSLFGS)	CCL1, CCL11,; also recorded: CCL17, CCL18,; also recorded: CCL2, CCL25,; also recorded: CCL8, X3CL1,; also recorded: CXL10, IL8
CR21134 (SLSISLLAEVLMFLFP)	CCL17, CCL18, and CCL2, CCL25, and CCL28, X3CL1, and CXL10, CXL11, and SDF1, CXL14, and IL8
CR21168 (SLVFIFGFVGNMLVIL)	CCL1, CCL22,; also recorded: CCL28, CXL10,; also recorded: CXL13, CXL14
CR21236 (SMILESLFAALVTLIT)	CCL22, CXL10,; also recorded: CXL11, SDF1,; also recorded: CXL13, IL8
CR21238: chemokine binding peptide of Table 5A used in FIG. 5 combinations (SMILESLFSALVTLIT)	CCL2, CXL11, and IL8
CR21284 (SMVIWVLAFFLSSPSL)	CCL1, CCL18,; also recorded: CCL20
CR21349: chemokine binding peptide of Table 5A used in FIG. 5 combinations (SNVTFTGLISAFSWFM)	CCL11, CCL2,; also recorded: CCL3, CCL4,; also recorded: CCL5, CCL8
CR22218 (SVSLVNLLTIIGCLWV)	CCL19, X3CL1,; also recorded: CXL13
CR22271 (SWIISFSVWMAAILLS)	CCL1, CCL17,; also recorded: CXL10
CR22272 (SWKVLLTLVWGAAPVI)	CCL17, CCL18,; also recorded: CCL20, CCL22,; also recorded: CCL25, CCL28,; also recorded: X3CL1, CXL10,; also recorded: CXL11, SDF1,; also recorded: CXL14, IL8
CR22363 (SYRSTYIILLLTWFAG)	CCL18, X3CL1,; also recorded: CXL10
CR22658 (TENFEYDDLAEACYIG)	CCL17, CCL18,; also recorded: X3CL1
CR22736 (TFGVVTSVITWLVAVF)	CCL1, CCL11, and CCL17, CCL18, and CCL2, CCL25, and CCL28, CCL8, and X3CL1, CXL10, and CXL11, SDF1, and CXL13, CXL14, and IL8
CR22747 (TFKILICIVWGVMPVV)	CCL1, CCL17,; also recorded: CCL18, CCL20,; also recorded: CCL22, CCL28,; also recorded: X3CL1, CXL10,; also recorded: SDF1, CXL13,; also recorded: CXL14
CR22748 (TFKILISIVWGVMPVV)	CCL17, CCL18,; also recorded: CCL19, CCL20,; also recorded: CCL22, CCL28,; also recorded: X3CL1, CXL10,; also recorded: CXL11, SDF1,; also recorded: CXL14, IL8
CR22786 (TFTGLIAAFSWFMLSL)	CCL11, CCL17,; also recorded: CCL18, CCL2,; also recorded: CCL20, CCL22,; also recorded: CCL28, X3CL1,; also recorded: SDF1, IL8
